In patent publication US20150105252A1, “SUBSTITUTED PYRAZOLES AS HERBICIDES” (E I DU PONT DE NEMOURS AND COMPANY, priority 2013, published 2015):

Key:
[1] = tested on: sedge, umbrella; experiment: Test B flood; format: in vivo, Cyperus difformis; details: 250 g ai/ha, visual rating on 0 to 100 scale (0 no effect, 100 complete control), 13 to 15 days
Method in brief: (§1)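 Visual ratings (0 = no effect, 100 = complete control) versus untreated controls were taken 13–15 days after treatment of greenhouse plants. Treatment was added to paddy water held at 3 cm depth on 2-leaf-stage seedlings.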

[2] = tested on: velvetleaf; experiment: Test C postemergence; format: in vivo, Abutilon theophrasti; details: for Plant response rating, Velvetleaf / Velvetleaf plant response rating: postemergence; for Velvetleaf plant response rating: scale 0 to 100
Method in brief: (§2)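 Visual rating, 0–100 scale (0 no effect, 100 complete control), vs untreated controls after 13–15 d greenhouse. Pre: seeds in loam/sand, treated at sowing. Post: plants in peat-based mix, 1- to 4-leaf (2–18 cm). Solvent + surfactant formulation, non-phytotoxic.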

[3] = tested on: wheat; experiment: Test C postemergence; format: in vivo, Triticum aestivum; details: for Plant response rating, Wheat / Wheat plant response rating: postemergence; for Wheat plant response rating: scale 0 to 100
Method in brief: as §2

[4] = tested on: crabgrass, large; experiment: Test C preemergence; format: in vivo, Digitaria sanguinalis
Method in brief: as §2

[5] = tested on: foxtail, giant; experiment: Test A preemergence; format: in vivo, Setaria faberii; details: preemergence; for Foxtail, Giant plant response rating (0 to 100 scale): visual injury approx. 10 days after treatment
Method in brief: (§3)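 Scoring was visual, on a scale where 100 means complete control and 0 means no effect, comparing treated with untreated plants around 10 days post-application. Compounds in surfactant-containing non-phytotoxic solvent were sprayed onto soil preemergence or onto one- to two-leaf seedlings (2–10 cm) postemergence.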

[6] = tested on: johnsongrass; experiment: Test C postemergence; format: in vivo, Sorghum halepense; details: for Plant response rating (scale of 0 to 100 where 0 is no effect and 100 is complete control), Johnsongrass: Postemergence, 31 g ai/ha, visually evaluated after 13 to 15 days; for Johnsongrass plant response rating / Plant response rating, Johnsongrass: postemergence; for Johnsongrass plant response rating: 62 g ai/ha, scale 0 to 100
Method in brief: as §2

[7] = tested on: velvetleaf; experiment: Test A postemergence; format: in vivo, Abutilon theophrasti
Method in brief: as §3

[8] = tested on: velvetleaf; experiment: Test C preemergence; format: in vivo, Abutilon theophrasti
Method in brief: as §2

[9] = tested on: wheat; experiment: Test C preemergence; format: in vivo, Triticum aestivum
Method in brief: as §2

[10] = tested on: rice; experiment: Test B flood; format: in vivo, Oryza sativa; details: 250 g ai/ha, visual rating on 0 to 100 scale (0 no effect, 100 complete control), 13 to 15 days
Method in brief: as §1

[11] = tested on: lambsquarters; experiment: Test C postemergence; format: in vivo, Chenopodium album; details: for Plant response rating (scale of 0 to 100 where 0 is no effect and 100 is complete control), Lambsquarters: Postemergence, 31 g ai/ha, visually evaluated after 13 to 15 days; for Lambsquarters plant response rating / Plant response rating, Lambsquarters: postemergence; for Lambsquarters plant response rating: 62 g ai/ha, scale 0 to 100
Method in brief: as §2

[12] = tested on: velvetleaf; experiment: Test A preemergence; format: in vivo, Abutilon theophrasti; details: preemergence; for Velvetleaf plant response rating (0 to 100 scale): 125 g ai/ha, visual injury approx. 10 days after treatment
Method in brief: as §3

[13] = tested on: pigweed; experiment: Test A postemergence; format: in vivo, Amaranthus retroflexus
Method in brief: as §3

[14] = tested on: waterhemp; experiment: Test C postemergence; format: in vivo, Amaranthus rudis; details: for Plant response rating, Waterhemp / Waterhemp plant response rating: postemergence; for Waterhemp plant response rating: scale 0 to 100
Method in brief: as §2

[15] = tested on: corn; experiment: Test A preemergence; format: in vivo, Zea mays; details: preemergence; for Corn plant response rating (0 to 100 scale): 125 g ai/ha, visual injury approx. 10 days after treatment; for Corn plant response rating: 500 g ai/ha, visual injury after approx. 10 days, 0 to 100 scale (0 no effect, 100 complete control)
Method in brief: as §3

[16] = 250 g ai/ha, scale 0 to 100 (0 no effect, 100 complete control)
[17] = preemergence, 31 g ai/ha, visual rating, scale 0 to 100 (0 no effect, 100 complete control), 13 to 15 days
[18] = preemergence, 62 g ai/ha, scale 0 to 100 (0 no effect, 100 complete control), 13 to 15 days
[19] = preemergence, 125 g ai/ha, 13 to 15 days, scale 0 to 100, 0 = no effect, 100 = complete control
[20] = preemergence, 250 g ai/ha, scale 0 to 100, 0 is no effect, 100 is complete control
[21] = 500 g ai/ha, visual injury after approx. 10 days, 0 to 100 scale (0 no effect, 100 complete control)
[22] = 125 g ai/ha, scale 0 to 100, 0 no effect, 100 complete control
[23] = Postemergence, 125 g ai/ha, 0 to 100 scale, 0 no effect, 100 complete control
[24] = Postemergence, 500 g ai/ha, 0 to 100 scale (0 no effect, 100 complete control)
[25] = postemergence, 125 g ai/ha, about 10 days, visual rating on 0 to 100 scale (0 no effect, 100 complete control)
[26] = Postemergence, 31 g ai/ha, visually evaluated after 13 to 15 days
[27] = Preemergence, rate head not shown (block before 16 g ai/ha), scale 0 to 100

Row | SMILES | Plant response rating, Sedge, Umbrella [1] | Plant response rating, Velvetleaf [2, 16] | Plant response rating, Wheat [3, 16] | Crabgrass, Large plant response rating [4, 18] | Plant response rating, Crabgrass, Large [4, 19] | Foxtail, Giant plant response rating [5, 21] | Plant response rating (scale of 0 to 100 where 0 is no effect and 100 is complete control), Johnsongrass [6] | Johnsongrass plant response rating [6] | Plant response rating, Johnsongrass [6, 16] | Plant response rating, Johnsongrass [6, 22] | Velvetleaf plant response rating [8, 18] | Plant response rating, Velvetleaf [8, 19] | Wheat plant response rating [9, 18] | Plant response rating, Wheat [9, 19] | Plant response rating, Rice [10] | Plant response rating (scale of 0 to 100 where 0 is no effect and 100 is complete control), Lambsquarters [11] | Lambsquarters plant response rating [11] | Plant response rating, Lambsquarters [11, 16] | Plant response rating, Lambsquarters [11, 22] | Pigweed plant response rating [13, 24] | other results
1 | CCc1cc(C(=O)NCC(F)(F)F)nn1Cc1ccnc(SC(F)(F)F)c1 [Compound 214] | 95 | 75 | 10 | 100 | 100 | 100 | 0 | 0 | 5 | 5 | 100 | 100 | 0 | 10 | 60 | 35 | 50 | 80 | 75 | 100 | Velvetleaf plant response rating [2]: 20; Wheat plant response rating [3]: 5; Crabgrass, Large plant response rating [4, 17]: 100; Crabgrass, Large plant response rating [4, 20]: 100; Foxtail, Giant plant response rating (0 to 100 scale) ([5]; 125 g ai/ha): 100; Velvetleaf plant response rating [7, 23]: 80; Velvetleaf plant response rating [7, 24]: 100; Velvetleaf plant response rating [8, 17]: 35; Velvetleaf plant response rating [8, 20]: 100; Wheat plant response rating [9, 17]: 0; Wheat plant response rating [9, 20]: 40; Velvetleaf plant response rating (0 to 100 scale) [12]: 100; Pigweed plant response rating [13, 23]: 100; Plant response rating, Waterhemp [14, 16]: 70; Waterhemp plant response rating [14]: 60; Corn plant response rating (0 to 100 scale) [15]: 10; Corn plant response rating [15]: 90
2 | CCCNC(=O)c1cc(CCF)n(Cc2ccnc(C(F)(F)F)c2)n1 [Compound 177] | 95 | 60 | 20 | 100 | 100 | 100 | 0 | 0 | 5 | 5 | 35 | 50 | 10 | 50 | 15 | 65 | 50 | 85 | 75 | 100 | Velvetleaf plant response rating [2]: 45; Wheat plant response rating [3]: 15; Crabgrass, Large plant response rating [4, 17]: 100; Crabgrass, Large plant response rating [4, 20]: 100; Foxtail, Giant plant response rating (0 to 100 scale) ([5]; 125 g ai/ha): 100; Velvetleaf plant response rating [7, 24]: 100; Velvetleaf plant response rating [7, 25]: 40; Velvetleaf plant response rating [8, 17]: 0; Velvetleaf plant response rating [8, 20]: 100; Wheat plant response rating [9, 17]: 10; Wheat plant response rating [9, 20]: 90; Velvetleaf plant response rating (0 to 100 scale) [12]: 40; Velvetleaf plant response rating [12, 21]: 100; Pigweed plant response rating [13, 25]: 100; Plant response rating, Waterhemp [14, 16]: 65; Waterhemp plant response rating [14]: 75; Corn plant response rating (0 to 100 scale) [15]: 80; Corn plant response rating [15]: 90
3 | CCOc1cc(C(=O)NCC(F)(F)F)nn1Cc1ccnc(OC(F)F)c1 [Compound 128] | 90 | 65 | 5 | 95 | 100 | 100 | 5 | 5 | 10 | 5 | 100 | 100 | 30 | 70 | 30 | 60 | 80 | 98 | 95 | 100 | Plant response rating (scale of 0 to 100 where 0 is no effect and 100 is complete control), Velvetleaf [2, 26]: 10; Velvetleaf plant response rating ([2]; 62 g ai/ha): 15; Plant response rating, Velvetleaf [2, 22]: 35; Plant response rating (scale of 0 to 100 where 0 is no effect and 100 is complete control), Wheat [3, 26]: 5; Wheat plant response rating ([3]; 62 g ai/ha): 5; Plant response rating, Wheat [3, 22]: 10; Plant response rating (scale of 0 to 100), Crabgrass, Large ([4]; Preemergence, 250 g ai/ha): 100; Crabgrass, Large plant response rating [4, 17]: 100; Foxtail, Giant plant response rating ([5]; 125 g ai/ha, visual injury, 0 to 100 scale, approx. 10 days): 100; Plant response rating (scale of 0 to 100), Velvetleaf ([8]; Preemergence, 250 g ai/ha): 100; Velvetleaf plant response rating [8, 17]: 5; Plant response rating (scale of 0 to 100), Wheat ([9]; Preemergence, 250 g ai/ha): 85; Wheat plant response rating [9, 17]: 20; Pigweed plant response rating [13, 25]: 100; Plant response rating (scale of 0 to 100 where 0 is no effect and 100 is complete control), Waterhemp [14, 26]: 60; Waterhemp plant response rating ([14]; 62 g ai/ha): 65; Plant response rating, Waterhemp [14, 16]: 95; Plant response rating, Waterhemp [14, 22]: 70
4 | CCc1cc(C(=O)NC2CC2)nn1Cc1ccnc(Br)c1 [Compound 220] | 70 | 40 | 5 | 100 | 100 | 100 | 0 | 0 | 25 | 20 | 20 | 75 | 0 | 15 | 15 | 30 | 10 | 25 | 20 | 100 | Velvetleaf plant response rating [2]: 45; Wheat plant response rating [3]: 0; Plant response rating, Crabgrass, Large [4, 27]: 95; Crabgrass, Large plant response rating [4, 20]: 100; Foxtail, Giant plant response rating (0 to 100 scale) ([5]; 125 g ai/ha): 100; Velvetleaf plant response rating [7, 23]: 70; Velvetleaf plant response rating [7, 24]: 80; Plant response rating, Velvetleaf [8, 27]: 5; Velvetleaf plant response rating [8, 20]: 100; Plant response rating, Wheat [9, 27]: 10; Wheat plant response rating [9, 20]: 0; Pigweed plant response rating [13, 23]: 90; Plant response rating, Waterhemp [14, 16]: 45; Waterhemp plant response rating [14]: 45; Corn plant response rating (0 to 100 scale) [15]: 0; Corn plant response rating [15]: 90
